Experimental data reported in ChEMBL document CHEMBL4706484, “Apigenin-rivastigmine hybrids as multi-target-directed liagnds for the treatment of Alzheimer's disease” (Eur J Med Chem, 2020).
The source made the active and inactive calls. The calls are words filed in the database; no cut-off is given here.

How the values were obtained:
[1] = biological target: Cholinesterase (Homo sapiens, UniProt P06276); test: Pseudo-irreversible inhibition of human serum BChE assessed as enzyme recovery activity at IC50 using diluted compound relative to control; assay type: cell-free; design: scale not given: the % may be the effect or the level left
Cholinesterase, sequence (P06276 whole entry): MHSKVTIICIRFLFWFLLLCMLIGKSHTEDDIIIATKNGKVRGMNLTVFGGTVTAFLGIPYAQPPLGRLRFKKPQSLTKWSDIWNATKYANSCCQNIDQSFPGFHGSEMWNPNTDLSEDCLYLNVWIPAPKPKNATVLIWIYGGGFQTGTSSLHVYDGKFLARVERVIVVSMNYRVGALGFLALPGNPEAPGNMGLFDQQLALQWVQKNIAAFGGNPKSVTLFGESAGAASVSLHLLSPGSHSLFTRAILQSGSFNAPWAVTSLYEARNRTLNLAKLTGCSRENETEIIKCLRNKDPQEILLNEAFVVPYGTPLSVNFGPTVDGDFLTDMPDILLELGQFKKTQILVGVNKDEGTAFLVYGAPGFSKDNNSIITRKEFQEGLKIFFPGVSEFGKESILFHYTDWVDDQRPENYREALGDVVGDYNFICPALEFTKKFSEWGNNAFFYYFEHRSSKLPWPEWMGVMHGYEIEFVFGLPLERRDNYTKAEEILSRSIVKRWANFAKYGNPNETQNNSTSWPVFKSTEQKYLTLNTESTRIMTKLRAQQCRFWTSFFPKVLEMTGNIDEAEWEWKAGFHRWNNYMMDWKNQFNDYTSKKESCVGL

[2] = biological target: Amyloid-beta precursor protein (Homo sapiens) (UniProt P05067); test: Inhibition of self-induced amyloid beta (1 to 42) (unknown origin) aggregation at 25 uM by ThT fluorescence assay relative to control
Amyloid-beta precursor protein (Homo sapiens), sequence (P05067 whole entry): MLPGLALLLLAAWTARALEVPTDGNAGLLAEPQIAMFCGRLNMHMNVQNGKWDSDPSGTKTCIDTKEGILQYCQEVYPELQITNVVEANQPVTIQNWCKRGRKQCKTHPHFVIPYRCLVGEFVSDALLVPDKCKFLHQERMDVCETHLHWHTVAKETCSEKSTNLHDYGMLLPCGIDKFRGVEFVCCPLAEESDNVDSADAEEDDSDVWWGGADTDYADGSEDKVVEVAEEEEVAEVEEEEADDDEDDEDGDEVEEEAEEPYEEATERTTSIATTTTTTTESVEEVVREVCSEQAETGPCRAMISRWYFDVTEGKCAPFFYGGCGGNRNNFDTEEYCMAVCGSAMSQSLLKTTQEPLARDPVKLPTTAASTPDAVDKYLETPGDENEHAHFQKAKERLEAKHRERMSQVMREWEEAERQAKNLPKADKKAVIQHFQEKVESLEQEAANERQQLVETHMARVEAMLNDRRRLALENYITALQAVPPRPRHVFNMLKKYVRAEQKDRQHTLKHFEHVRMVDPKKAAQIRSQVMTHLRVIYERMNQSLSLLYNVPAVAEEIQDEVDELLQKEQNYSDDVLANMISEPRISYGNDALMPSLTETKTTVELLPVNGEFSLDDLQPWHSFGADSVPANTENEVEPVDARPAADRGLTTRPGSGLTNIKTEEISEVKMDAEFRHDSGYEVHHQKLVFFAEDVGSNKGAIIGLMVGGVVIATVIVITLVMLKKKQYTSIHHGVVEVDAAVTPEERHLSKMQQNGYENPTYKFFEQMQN

[3] = test system: PC-12; test: Neuroprotective activity against H2O2-induced cell injury in rat PC-12 cells assessed as cell viability at 5 uM preincubated for 2 hrs followed by H2O2 addition and measured after 24 hrs by MTT assay (reference value: 53.8 %); assay type: functional; details: time 26 hrs, read-out: Activity
[4] = test system: SH-SY5Y; test: Neuroprotective activity against amyloid beta (1 to 42 residues)-induced cell injury in human SH-SY5Y cells assessed as cell viability at 5 uM preincubated for 2 hrs followed by H2O2 addition and measured after 24 hrs by MTT assay (reference value: 52.3 %); assay type: functional; details: time 26 hrs, read-out: Activity
[5] = Metal chelating activity assessed as Al3+-compound complex formation by measuring absorption wavelength at 37.5 uM in presence of 37.5 uM AlCl3 by UV-Vis spectrophotometric analysis
[6] = Metal chelating activity assessed as compound-Cu2+ complex stoichiometry ratio of 1:1 at 37.5 uM in presence of CuCl2 by UV-visible spectrophotometric analysis
[7] = Inhibition of copper-induced amyloid beta (1 to 42) (unknown origin) aggregation measured after 24 hrs by TEM analysis
[8] = Disaggregation of Copper-induced amyloid beta (1 to 42) (unknown origin) preformed fibrils measured after 48 hrs by TEM analysis
[9] = Permeability of the compound in PBS/EtOH (70:30) at 100 ug/ml by PAMPA-BBB assay; assay type: ADME; details: dose 100 µg/ml, read-out: permeability
[10] = Acute toxicity in 2 dpf zebrafish assessed as maximum non-lethal concentration measured after 3 days; design: species or system Danio rerio; details: in vivo, time 3 day
[11] = Acute toxicity in 2 dpf zebrafish assessed as death at 1.25 to 20 ug/ml measured after 3 days; design: species or system Danio rerio; details: in vivo, 72 h, dose 1.25-20 µg/ml, time 3 day
[12] = Acute toxicity in 2 dpf zebrafish assessed as precipitation at 20 ug/ml measured after 3 days; design: species or system Danio rerio; details: in vivo, 72 h, dose 20 µg/ml, time 3 day
[13] = Acute toxicity in 2 dpf zebrafish assessed as yolk sac absorption delay at 1.39 ug/ml measured after 3 days; design: species or system Danio rerio; details: in vivo, 72 h, dose 1.39 µg/ml, time 3 day
[14] = Acute toxicity in 2 dpf zebrafish assessed as pericardial edema at 1.39 to 12.5 ug/ml measured after 3 days; design: species or system Danio rerio; details: in vivo, 72 h, dose 1.39-12.5 µg/ml, time 3 day
[15] = Acute toxicity in 2 dpf zebrafish assessed as slow blood flow at 1.39 to 12.5 ug/ml measured after 3 days; assay type: tissue-based, Danio rerio; details: 72 h, dose 1.39-12.5 µg/ml, time 3 day
[16] = Acute toxicity in 2 dpf zebrafish assessed as abnormal liver size at 1.39 to 12.5 ug/ml measured after 3 days; design: species or system Danio rerio; details: in vivo, 72 h, dose 1.39-12.5 µg/ml, time 3 day
[17] = Acute toxicity in 2 dpf zebrafish assessed as dark brown liver at 1.39 to 12.5 ug/ml measured after 3 days; design: species or system Danio rerio; details: in vivo, 72 h, dose 1.39-12.5 µg/ml, time 3 day
[18] = Acute toxicity in 2 dpf zebrafish assessed as death at 1.39 to 12.5 ug/ml measured after 3 days; design: species or system Danio rerio; details: in vivo, 72 h, dose 1.39-12.5 µg/ml, time 3 day
[19] = species: Danio rerio; test: Antialzheimer activity against 3 dpf zebrafish model of AlCl3-induced AD assessed as change in motility distance at 12.5 ug/ml (reference value: 5204 mm); assay type: functional; details: dose 12.5 µg/ml
[20] = species: Danio rerio; test: Antialzheimer activity against 3 dpf zebrafish model of AlCl3-induced AD assessed as efficacy on motility distance at 4.2 ug/ml relative to control; assay type: functional; details: dose 4.2 µg/ml
[21] = species: Danio rerio; test: Protection against amyloid beta (1 to 40 residues)-induced vascular injury in transgenic zebrafish assessed as vascular injury rate at 4.2 ug/ml (reference value: 73.3 %); assay type: functional; details: dose 4.2 µg/ml
[22] = species: Danio rerio; test: Protection against amyloid beta (1 to 40 residues)-induced vascular injury in transgenic zebrafish assessed as vascular injury rate at 12.5 ug/ml (reference value: 73.3 %); assay type: functional; details: dose 12.5 µg/ml
[23] = Acute toxicity in Kunming mouse assessed as abnormal behavior at 1000 mg/kg; assay type: organism-based; details: in vivo
[24] = test system: Mus musculus; test: Cognitive enhancing effect in scopolamine-induced Kunming mouse model of memory impairment assessed as effect on total arm entries at 5 to 20 mg/kg by Y-maze test; assay type: functional, organism-based; details: dose 5-20 mg/kg
[25] = test system: Mus musculus; test: Reversal of scopolamine-induced Kunming mouse model of memory impairment assessed as spontaneous alteration at 10 mg/kg by Y-maze test (reference value: 41.6 %); assay type: functional
[26] = test system: Mus musculus; test: Antialzheimer activity in scopolamine-induced Kunming mouse model of memory impairment assessed as GC bases ratio (QC data) in brain hippocampus at 10 mg/kg by illumina sequencing method (reference value: 53.64 %); assay type: functional
[27] = test system: Mus musculus; test: Antialzheimer activity in scopolamine-induced Kunming mouse model of memory impairment assessed as total reads in brain hippocampus at 10 mg/kg by illumina sequencing method (reference value: 100 %); assay type: functional
[28] = test system: Mus musculus; test: Antialzheimer activity in scopolamine-induced Kunming mouse model of memory impairment assessed as total mapped in brain hippocampus at 10 mg/kg by illumina sequencing method (reference value: 97.13 %); assay type: functional
[29] = test system: Mus musculus; test: Antialzheimer activity in scopolamine-induced Kunming mouse model of memory impairment assessed as uniquely mapped in brain hippocampus at 10 mg/kg by illumina sequencing method (reference value: 94.54 %); assay type: functional

For `CCN(C)C(=O)Oc1ccc(-c2cc(=O)c3c(O)cc(OC(=O)N(C)CC)cc3o2)cc1`, the Activity [1] was 54.1%, the inhibition [2] was 77.9% and the viability at 5 µM [3] was 68.6%. For the same compound, the viability at 5 µM [4] was 63.9%, the Activity [5] was 384 nm and the Activity [6] was “Active”. For the same compound, the inhibition [7] was “Active”, the Activity [8] was “Active” and the Papp at 100 ug/ml [9] was 15.5 ×10⁻⁶ cm/s. The MNTC at 72 h [10] was 12.5 µg/mL, the Activity [11] was “Non-Toxic” and the Activity [12] was “Toxic”. For the same compound, the Activity [13] was “Non-Toxic”, the Activity [14] was “Non-Toxic” and the Activity [15] was “Non-Toxic”. The Activity [16] was “Non-Toxic”, the Activity [17] was “Non-Toxic” and the Activity [18] was “Non-Toxic”. For the same compound, the Activity [19] was 6733 mm, the Efficacy [20] was 65% and the Activity [21] was 53%. For the same compound, the Activity [22] was 27%, the Activity [23] was “Non-Toxic” and the Activity [24] was “inactive”. The Activity [25] was 63.4%, the Activity [26] was 60.72% and the Activity [27] was 100%. It also gave an Activity [28] of 96.87% and an Activity [29] of 93.76%.
